Data published in ChEMBL document CHEMBL1156829 (Proc Natl Acad Sci U S A, 2008).

Columns and labels:
[1] = NOVARTIS: Cytotoxicity against human hepatocellular carcinoma cell line (Huh7); assay type: toxicity, cell-based, Huh-7; conditions: Huh7 cells (hepatocellular carcinoma cell line)
Plasmodium falciparum [2] = experiment: NOVARTIS: Inhibition of Plasmodium falciparum W2 (drug-resistant) proliferation in erythrocyte-based infection assay; assay type: functional, organism-based; conditions: read-out: EC50
Plasmodium falciparum [3] = experiment: NOVARTIS: Inhibition of Plasmodium falciparum 3D7 (drug-susceptible) proliferation in erythrocyte-based infection assay; assay type: functional, organism-based

| SMILES | CC50 [1] [nM] | EC50 (Plasmodium falciparum [2]; Plasmodium falciparum, W2) [nM] | EC50 (Plasmodium falciparum [3]; Plasmodium falciparum, 3D7) [nM] | EC50 (Plasmodium falciparum [2]) [nM] | EC50 (Plasmodium falciparum [3]) [nM] |
| --- | --- | --- | --- | --- | --- |
| CCOc1ccc(N(C(C)=O)C2=C(N3CCN(C)CC3)C(=O)c3ccccc3C2=O)cc1 | 12900 | 10.9 | 78.7 |  |  |
| COC(=O)c1cccc(NC(=O)/C(=C\c2cccc([N+](=O)[O-])c2)NC(=O)c2ccccc2OC)c1 | > 10000 | > 814 | > 1670 |  |  |
| O=C(Nc1cnc2ccccc2c1)c1cccc(-n2cnnn2)c1 | > 10000 | 182 | 174 |  |  |
| C(=NNc1nc2ccccc2[nH]1)c1cccc(Oc2ccccc2)c1 | > 100000 | 962 | 302 |  |  |
| O=c1c2c3c(sc2ncn1CC1CCCCC1)CC(NCc1cccnc1)CC3 (stereo unspecified) | > 10000 | > 1250 | > 1040 |  |  |
| COc1ccc(Cl)cc1NC(=O)C1c2ccccc2C(=O)N(CC(C)C)C1c1cccs1 (stereo unspecified) | > 100000 | 272 | 837 |  |  |
| O=C(CCl)NCCCN(C(=O)Nc1ccc(Cl)c(Cl)c1)c1ccccc1 | > 931 | 74 | 217 |  |  |
| CC(=O)O[C@H]1C(=O)[C@@]2(C)C([C@H](OC(=O)c3ccccc3)[C@]3(O)C[C@H](OC(=O)[C@@H](O)[C@@H](NC(=O)c4ccccc4)c4ccccc4)C(C)=C1C3(C)C)[C@]1(OC(C)=O)CO[C@@H]1C[C@@H]2O (stereo partly specified) | > 100000 | 152 | 658 |  |  |
| COc1cccc(CCNC(=O)c2ccc(OC3CCN(CC(c4ccccc4)c4ccccc4)CC3)c(OC)c2)c1 | > 10000 | 84.5 | 1070 |  |  |
| COc1ccc2cc(C)c3nnc(SCC(=O)N4CCN(C(=O)c5ccco5)CC4)n3c2c1 | > 100000 | 796 | 1130 |  |  |
| CC(NCc1cc(-c2ccccc2)ccc1O)c1cccc2ccccc12 (stereo unspecified) | > 10000 | 77.3 | 1210 |  |  |
| COc1ccc(C=C2SC(=N)N(c3ccc4c(c3)OCO4)C2=O)cc1OC | > 100000 | 2280 | > 9750 |  |  |
| Cc1sc2ncn(CC(=O)N(C)Cc3ccccc3)c(=O)c2c1S(=O)(=O)N1CCOCC1 | > 10000 | > 770 | > 1250 |  |  |
| O=C1/C(=N\c2cccc(O)c2)C(N2CCCCC2)=C(O)c2ccccc21 | > 100000 | 227 | 212 |  |  |
| COc1cc([N+](=O)[O-])ccc1NC(=O)CN1CCN(C(=O)c2ccco2)CC1 | > 100000 | 832 | 1600 |  |  |
| CCOC(=O)c1cnc2ccc(OCC)cc2c1NCCN(CC)CC | > 10000 | > 988 | 832 |  |  |
| CCOC(=O)c1ccc(N2CCN(c3ccc(F)cc3)CC2)c(NC(=O)Nc2ccccc2)c1 | > 10000 | > 860 | > 1250 |  |  |
| O=C(c1ccccc1)c1cc(Cl)ccc1NCCBr | > 10000 | > 955 | > 1250 |  |  |
| CCN1C(=Cc2sc3ccc(Cl)cc3[n+]2CC)C=Cc2cc(OC)ccc21 | > 10000 |  |  | 602 | 473 |
| COc1cc2ccccc2cc1C(=O)NCCOC12CC3CC(CC(C3)C1)C2 | > 100000 | 1140 | 3500 |  |  |
| COc1cc(CN(CC[C@H](c2ccccc2)c2c(O)ccc3ccccc23)Cc2ccccc2)cc(OC)c1 | > 10000 | 75.4 | 702 |  |  |
| COc1cccc(-c2ccc(O)c(CNCCc3cccc(F)c3)c2)n1 | > 10000 | 732 | 1090 |  |  |
| CCN1CCN(c2nc3ccccn3c(=O)c2C=C2SC(=S)N(C(C)C)C2=O)CC1 | 79000 | 304 | 701 |  |  |

| SMILES | CC50 [1] [nM] | EC50 (Plasmodium falciparum [2]; Plasmodium falciparum, W2) [nM] | EC50 (Plasmodium falciparum [3]; Plasmodium falciparum, 3D7) [nM] | EC50 (Plasmodium falciparum [2]) [nM] | EC50 (Plasmodium falciparum [3]) [nM] |
| --- | --- | --- | --- | --- | --- |
| Cn1nc(C(F)(F)F)c(-c2ccc(F)cc2)c1NC(=O)Nc1ccccc1 | 54300 | 353 | 392 |  |  |
| Cc1nc(CC(=O)N2CCCC(CNC(=O)C3(c4ccc(Cl)cc4)CC3)C2)cs1 (stereo unspecified) | > 100000 | 5020 | > 12500 |  |  |
| CCOC(=O)c1cnc2c(OC)cccc2c1Nc1ccc(C(C)=O)cc1 | > 100000 | 123 | 592 |  |  |
| O=c1cccc2n1CC1CC2CN(Cc2cccc(O)c2)C1 (stereo unspecified) | > 100000 | 1700 | > 12500 |  |  |
| COc1ccc(-c2csc3nc(COc4cccc(C)c4)nn23)c(O)c1 | > 100000 | 7590 | > 4620 |  |  |
| Cc1ccc(N=C2C(=O)Nc3ccc(C)c(Br)c32)c(O)c1 | > 10000 | > 1250 | > 963 |  |  |
| CCOC(=O)C1(CC)CC(C)(C(=O)C[n+]2cccc(Br)c2)OC1=O (stereo unspecified) | > 10000 | 628 | 410 |  |  |
| CC(C)CC(=O)Nc1nnc(-c2ccc(Br)cc2)s1 | > 100000 | 2330 | > 9040 |  |  |
| O=C(CCCOc1ccc(Cl)cc1Cl)NCCCn1ccnc1 | > 10000 | > 1250 | 480 |  |  |
| CN(CCCNc1ccnc2cc(Cl)ccc12)C(=O)C(C)(C)CCl | > 10000 | 192 | 94.9 |  |  |
| N#Cc1c2c(c(N3CCN(Cc4ccc(F)cc4)CC3)n3c1nc1ccccc13)CCC2 | > 100000 | 37.7 | 19.8 |  |  |
| CCOC(=O)C1=C(C)NC2=C(C(=O)CC(c3ccc(OC)cc3)C2)C1c1cccc(F)c1 (stereo unspecified) | > 100000 | 50.4 | 137 |  |  |
| COc1ccc(CCNc2nc(NCCCn3ccnc3)ncc2C(=O)NCc2ccccc2)cc1OC | > 10000 | > 1250 | 1000 |  |  |
| COc1ccc(C2C(C(=O)Nc3cccc(OC)c3)c3ccccc3C(=O)N2C2CCCCC2)cc1 (stereo unspecified) | > 100000 | 332 | 1110 |  |  |
| CCCN(CCC)[P+](CCC)(c1ccc([P+](CCC)(N(CCC)CCC)N(CCC)CCC)cc1)N(CCC)CCC | 72600 | 66.8 | 193 |  |  |
| CC(CC(=O)NCCCCNc1ccnc2cc(Cl)ccc12)CC(C)(C)C (stereo unspecified) | 4590 | 296 | 443 |  |  |
| c1ccc(-c2ccc(CNc3ccc4cn[nH]c4c3)cc2)cc1 | > 10000 | 1040 | > 1250 |  |  |
| COc1cccc(NC(=O)C2C3C=CC4(O3)C2C(=O)N(Cc2ccc3c(c2)OCO3)C4C(=O)NC2CCCCC2C)c1 (stereo unspecified) | > 100000 | > 5310 | > 12500 |  |  |
| COc1cccc(NC(=O)c2ccc3oc(=O)c(S(=O)(=O)c4ccccc4)cc3c2)c1 | > 10000 | > 898 | > 1250 |  |  |
| CC(C)(C[N+](C)(C)C)C1OC2CCCCC2C2C=CCCC21 (stereo unspecified) | > 100000 | 565 | 999 |  |  |
| CN(C)c1ccc(C=NNc2ncnc3nc[nH]c23)cc1 | 11000 | 138 | 167 |  |  |
| CC(=O)Nc1ccc(S(=O)(=O)NC2C(C)(C)C3CC[C@]2(C)C3)cc1 (stereo partly specified) | > 10000 | > 184 | > 1250 |  |  |
| COc1ccc(-c2c[n+](Cc3ccc(Cl)c(Cl)c3)c3n2CCC3)cc1 | 49700 | 858 | 537 |  |  |

| SMILES | CC50 [1] [nM] | EC50 (Plasmodium falciparum [2]; Plasmodium falciparum, W2) [nM] | EC50 (Plasmodium falciparum [3]; Plasmodium falciparum, 3D7) [nM] | EC50 (Plasmodium falciparum [2]) [nM] | EC50 (Plasmodium falciparum [3]) [nM] |
| --- | --- | --- | --- | --- | --- |
| Cc1cc2ncn(N=Cc3cccnc3)c2cc1C | > 10000 | > 1250 | > 1020 |  |  |
| O[C@@H]1[C@H]2c3cc4c(cc3CN3CCC(=C[C@@H]1O)[C@H]23)OCO4 | > 10000 | 361 | 46.5 |  |  |
| Oc1ccc(Nc2ccnc3cc(Cl)ccc23)cc1 | 39700 | 3520 | 3370 |  |  |
| C=CCOc1ccccc1CN1CCN(c2ccccn2)CC1 | > 98500 | 4850 | > 9990 |  |  |
| CCCCC(CC)C(=O)N1CCN(C(CC)c2nc3ccccc3c(=O)n2C)CC1 (stereo unspecified) | > 100000 | 294 | 374 |  |  |
| CCNC(=O)NS(=O)(=O)c1cnccc1Sc1cccc(C)c1 | > 10000 | > 1250 | > 1030 |  |  |
| Nc1nonc1-n1nnc(C(=O)NN=Cc2cc(Br)cs2)c1-c1ccccc1 | > 100000 | 1100 | 692 |  |  |
| CCOC(=O)C1=C(C)N=c2sc(=Cc3c4ccccc4cc4ccccc34)c(=O)n2C1c1cc(OC)ccc1OC (stereo unspecified) | > 100000 | 4770 | > 12500 |  |  |
| CCOC(=O)C1=C(C)NC2=C(C(=O)C(C(=O)OCC)C(c3ccc(OC)cc3)C2)C1c1ccc([N+](=O)[O-])cc1 (stereo unspecified) | > 100000 | 134 | 685 |  |  |
| O=C(c1ccncc1)N1N=C(C(F)(F)F)CC1(O)c1cccc([N+](=O)[O-])c1 (stereo unspecified) | > 10000 | > 1680 | > 1220 |  |  |
| Cc1nccn1CC(C)C(=O)N1CCCC(n2nc(-c3cccs3)ccc2=O)C1 (stereo unspecified) | > 10000 | > 1250 | > 620 |  |  |
| COc1ccc2c(c1)sc1nc(C)c(C)c(C)[n+]12 | > 10000 | > 952 | 688 |  |  |
| Cc1ccc(NC(=O)C2CC3c4ccccc4C2c2ccccc23)cc1 (stereo unspecified) | > 100000 | 2550 | > 12500 |  |  |
| CCCCNC(=O)c1nn(-c2ccc(OC)cc2)c(=O)c2ccccc12 | > 100000 | 680 | 2250 |  |  |
| COCCN1C(=O)C(O)=C(C(=O)c2ccccc2)C1c1ccccc1[N+](=O)[O-] (stereo unspecified) | > 100000 | 1710 | > 12500 |  |  |
| O=C(Cn1c2ccccc2c(=O)c2cc([N+](=O)[O-])ccc21)Nc1cccc(Cl)c1 | > 10000 | > 1250 | > 880 |  |  |
| Cc1ccc(C(OCC(C)(C)C[N+](C)(C)C)c2ccccc2)cc1 (stereo unspecified) | 23300 | 629 | 265 |  |  |
| COc1ccc(NC(=O)c2cc3cc(C4(O)CCN(CC(C)c5ccccc5)CC4)ccc3o2)cc1 (stereo unspecified) | > 100000 | 1980 | 2400 |  |  |
| CCOC(=O)c1cnc2ccc(Cl)cc2c1NCCCN(C)C | 48200 | 135 | 826 |  |  |
| N#CC(=Cc1ccc(Sc2ccccc2)o1)c1nc2ccccc2[nH]1 | > 100000 | 501 | 1050 |  |  |
| O=C(Nc1ccccc1O)c1ccc(C(=O)N(C2CCCCC2)C2CCCCC2)cc1 | > 100000 | > 2450 | 1470 |  |  |
